How the values were obtained:
[1] = test system: C57BL/6J mice; assay: Observable effects; format: in vivo; conditions: Rimonabant (3 mg/kg s.c., 10 min before) / 50 mg placebo smoke
[2] = following inhalation of 200 mg incinerated marijuana; ref Wilson et al., 2006; cited from earlier work

| Compound | Hyperreflexia, percentage of mice showing presence of observable effect [1] [%] | Ptosis, percentage of mice showing presence of observable effect [1] [%] | Straub Tail, percentage of mice showing presence of observable effect [1] [%] | Brain concentration of THC [2] [ng/g] |
| --- | --- | --- | --- | --- |
| Cc1c(C(=O)NN2CCCCC2)nn(-c2ccc(Cl)cc2Cl)c1-c1ccc(Cl)cc1 [Rimonabant] | 0 | 0 | 0 |  |
| CCCCCc1cc(O)c2c(c1)OC(C)(C)[C@@H]1CCC(C)=C[C@@H]21 [THC, Δ^9-tetrahydrocannabinol] |  |  |  | 433 ± 66 |
